Results from US20150239831A1, “INHIBITORS OF CENTRAL NERVOUS SYSTEM VASOACTIVE INHIBITORY PEPTIDE RECEPTOR 2” (The Trustees Of Columbia University In The City Of New York, priority 2012, published 2015).

Key:
VIPR2 = biological target: T1, VIPR2 (Homo sapiens, UniProt P41587); assay: BRET-based VIPR2 activation assay (CAMYEL cAMP sensor, CHO cells, VIP background); type: cell-based; details: FIG. 1C, FIG. 5
T1 sequence (P41587 24-438): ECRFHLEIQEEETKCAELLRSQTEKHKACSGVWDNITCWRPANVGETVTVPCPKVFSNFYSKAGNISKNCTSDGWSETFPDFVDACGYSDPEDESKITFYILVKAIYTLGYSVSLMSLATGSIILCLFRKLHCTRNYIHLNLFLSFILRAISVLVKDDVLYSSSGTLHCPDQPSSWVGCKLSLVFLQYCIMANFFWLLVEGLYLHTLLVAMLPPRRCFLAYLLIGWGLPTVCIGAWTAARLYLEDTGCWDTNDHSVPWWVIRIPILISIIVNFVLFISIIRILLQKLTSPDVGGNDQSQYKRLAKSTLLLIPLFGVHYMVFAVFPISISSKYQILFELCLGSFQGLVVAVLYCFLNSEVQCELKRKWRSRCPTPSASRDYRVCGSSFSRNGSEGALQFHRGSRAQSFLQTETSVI
Source text: In such a system, a detector cell is used which expresses both the VIPR2 receptor and “CAMYEL,” a YFP-Epac-RLuc8 BRET sensor construct. This construct includes Epac1, a guanine nucleotide exchange factor activated by direct binding of cAMP, fused with an enhanced YFP and Renilla luciferase 8 (Rluc8) allowing BRET upon cAMP-induced conformational changes (Jiang et al., 2007, J Biol Chem. 282:10576-10584). In response to elevated cAMP levels, there is a conformational change in Epac and therefore a change in the proximity of the fused chromophores, Rluc8 and YFP, resulting in measurable energy transfer. Coexpression of this BRET construct with VIPR2, optionally tagged at the N-terminus with a signal peptide and FLAG epitope (SF-VIPR2), for example in HEK293 cells, allows for detection of a VIPR2-specific response to cAMP. BRET readout may be calculated by quantifying the ratio of the light emitted by the acceptor, YFP (λ=525 nm), over the emission from the donor, RLuc8 (λ=485 nm). The proximity of the donor and acceptor, and therefore the BRET ratio, decreases in the presence of cAMP. In non-limiting specific embodiments, a stable cell line may be generated for this assay using the Flp-In T-Rex system in HEK293 cells. This system allows site-specific single copy integration of the gene of interest and control of expression levels using the Tet-repressor site making receptor expression tetracycline-inducible. For example, a CAMYEL and VIPR2 expressing line may be induced with 0.01 μg/ml tetracycline, then, 24 hours later cells may be collected and distributed into 96-well plates. After treatment with candidate inhibitor compound, for example at 5, 1 and 0.5 μM concentrations, cells may be incubated with the light emitting luciferin, coelenterazine H, for 5 min and incubated for 5 min with VIP at increasing concentrations, for example ranging from […] to 10 μM. The fluorescence and luminescence may then be quantified, for example using a PHERAstar (BMG) plate reader. […] Alternatively, analogous experiments may be performed using human cells harvested from a patient having a VIPR2 copy number variation, for example (but not by way of limitation) pluripotent stem cells prepared from such a patient and then transfected with a CAMYEL construct.
Numerous cellular assays were developed that were able to detect VIP responses absent of interference from non-specific vasopressin receptors using this CHO based system. VIPR2 is a Gs coupled receptor. Activation of VIPR2 by VIP leads to both an elevation in cAMP signaling and the recruitment of β-arrestin. A variety of combinations can be transiently transfect into these CHO cells for the assessment of cellular responses to VIP. For the BRET readout CHO cell lines expressing an YFP-Epac-RLuc8 (CAMYEL) BRET sensor were used to detect changes in cAMP. This construct includes Epac1, a guanine nucleotide exchange factor activated by direct binding of cAMP, fused to an enhanced YFP and RLuc8 allowing a change in BRET upon cAMP-induced conformational changes. The key for medium to high throughput screening assays is the use of stable cell lines allowing the continuous assaying of multiple compounds with the ability to generate large numbers of cells for rapid use. In these lines VIPR2 was expressed as one of the stable cell lines assays. This was introduced into the CHO-Flp-IN to allow the generation of isogenic stable cell lines expressing high levels of VIPR2 under control of the CMV promoter. This has been introduced into this line together with the CAMYEL construct previously described. This allows for detection of VIPR2-specific responses to cAMP. EYFP fluorescence and RLuc8 luminescence is quantified in the presence of 5 μM light-emitting luciferin, coelenterazine H, using a PHERAstar (BMG) plate reader. BRET is calculated by quantifying the ratio of the light emitted by the acceptor, YFP (λ=525 nm), over the emission from the donor, RLuc8 (λ=485 nm).
3. […]

VPAC1 = biological target: T2, VPAC1 (Homo sapiens, UniProt P32241); details: Chu et al., 2010; cited from earlier work
T2 sequence (P32241 31-457): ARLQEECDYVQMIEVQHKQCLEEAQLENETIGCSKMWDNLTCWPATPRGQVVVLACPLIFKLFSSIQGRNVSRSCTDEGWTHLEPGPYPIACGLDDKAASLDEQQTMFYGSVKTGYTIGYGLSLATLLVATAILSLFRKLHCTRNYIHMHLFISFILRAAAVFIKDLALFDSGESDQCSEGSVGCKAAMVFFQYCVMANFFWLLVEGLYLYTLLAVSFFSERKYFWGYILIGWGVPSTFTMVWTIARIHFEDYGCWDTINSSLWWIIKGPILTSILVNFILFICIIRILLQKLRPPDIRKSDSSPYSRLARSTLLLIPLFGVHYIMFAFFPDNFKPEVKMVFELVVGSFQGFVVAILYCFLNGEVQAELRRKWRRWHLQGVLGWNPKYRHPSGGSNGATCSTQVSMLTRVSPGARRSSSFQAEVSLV

PAC1 = biological target: T3, PAC1 (Homo sapiens, UniProt P41586); details: Chu et al., 2010; cited from earlier work
T3 sequence (P41586 21-468): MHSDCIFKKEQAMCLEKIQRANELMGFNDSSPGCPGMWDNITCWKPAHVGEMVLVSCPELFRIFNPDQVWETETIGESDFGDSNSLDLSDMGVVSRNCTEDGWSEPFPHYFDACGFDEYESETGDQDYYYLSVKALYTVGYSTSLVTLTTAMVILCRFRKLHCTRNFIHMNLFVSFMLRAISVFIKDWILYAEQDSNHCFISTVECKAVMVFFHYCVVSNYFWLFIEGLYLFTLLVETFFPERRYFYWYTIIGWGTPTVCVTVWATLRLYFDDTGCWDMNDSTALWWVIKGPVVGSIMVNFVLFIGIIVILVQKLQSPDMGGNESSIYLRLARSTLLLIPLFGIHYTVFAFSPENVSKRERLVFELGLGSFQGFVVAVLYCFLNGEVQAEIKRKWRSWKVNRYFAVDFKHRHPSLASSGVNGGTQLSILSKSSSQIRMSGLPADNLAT

VIPR2 inhibition in BRET-based assay (in words) (VIPR2): rightward shift
Structure (SMILES): O=C(N[C@H]1c2ccccc2C[C@H]1O)[C@H](Cc1ccccc1)C[C@H](O)CNS(=O)(=O)c1ccc([N+](=O)[O-])cc1 [Compound 1]
agonist or antagonist activities for VPAC1 (VPAC1): no detectable agonist or antagonist activities
agonist or antagonist activities for PAC1 (PAC1): no detectable agonist or antagonist activities
